Measurements from paper PMC6695355, “Alanine Scanning Studies of the Antimicrobial Peptide Aurein 1.2” (Probiotics and Antimicrobial Proteins, 2018).
Converted amounts (≈) assume the structure as drawn. Where a SMILES comes first, the peptide text is derived from it.

Tests used:
[1] = system: S. aureus ATCC 25923 biofilm formation; format: cell-based, Staphylococcus aureus; details: ATCC 25923, 24 h
Procedure: (§1) The minimum inhibitory concentrations (MICs) of test compounds were assessed by broth microdilution method on 96-well plates, according to the guidelines of Clinical and Laboratory Standards Institute (CLSI). For this purpose, reference strains of bacteria: S. aureus ATCC 25923, E. faecalis PCM 2673, E. coli ATCC 25922, and P. aeruginosa ATCC 9027; and fungus: C. albicans ATCC 10231 were used (The Polish Collection of Microorganism, Polish Academy of Sciences, Wrocław, Poland). Bacteria at initial inoculums of 0.5 × 10^5 CFU/mL in Mueller Hinton Broth (MHB), and fungi at initial inoculums of 2 × 10^3 CFU/mL in RPMI-1640, were exposed to the compounds over the concentration range of 1–512 μg/mL. The polystyrene plates were incubated at 37 °C for 18 h with bacteria and for 24 h with C. albicans. The MIC was taken as the lowest concentration at which a noticeable growth of microorganisms was inhibited. Minimum biofilm eradication concentrations (MBECs) were determined using a previously described protocol. For this purpose, 96-well polystyrene flat-bottom plates and a resazurin (7-hydroxy-3H-phenoxazin-3-one 10-oxide) were used. In this assay, a specific feature of resazurin is utilized, which upon the contact with living cells is metabolized and reduced from the basic blue form to pink resorufin. Briefly, 24-h cultures of microorganisms were diluted 1,000-fold and 100 μL of that suspension was added into the test plates. After 24 h of incubation at 37 °C, the wells of the plates were rinsed three times with phosphate buffer saline (PBS) to remove non-adherent cells. Subsequently, 100 μL of test compounds in concentration range (diluted in appropriate media) were added to each well. After 24 h of incubation at 37 °C, 20 μL of the resazurin (4 mg/mL) was added. The MBEC was read after 1 h. Additionally, anti-adhesive properties of the compounds were also analyzed. The assay was conducted on 96-well polystyrene flat-bottom plates. The preparation of inoculums was followed by a 500-fold dilution of 24-h cultures of microorganisms. Briefly, to evaluate the effect of the peptides in preventing biofilm formation, 50 μL of compounds in concentration range, diluted in appropriate medium, were prepared. Subsequently, the 50 μL of the bacterial/fungal inoculums were added to reach the same microbial density as that in MBEC assay. After 24 h of incubation at 37 °C, the wells were rinsed three times with PBS and the fresh media with resazurin (0.6 mg/mL) were added. Then, after 1 h of incubation, the minimum biofilm inhibitory concentrations (MBIC) were read. MBECs as well as MBICs were determined as the lowest concentration at which the reduction of resazurin was lower or equal (10% ± 0.5%) as compared to positive (100%) and negative (0%) controls. All experiments were performed in triplicate.

[2] = system: S. aureus ATCC 25923 biofilm; format: cell-based, Staphylococcus aureus; details: ATCC 25923, 24 h
Procedure: as §1

[3] = system: S. aureus ATCC 25923; format: cell-based, Staphylococcus aureus; details: ATCC 25923, 18 h
Procedure: as §1

[4] = system: E. faecalis PCM 2673 biofilm formation; format: cell-based, Enterococcus faecalis; details: 24 h
Procedure: as §1

[5] = system: E. faecalis PCM 2673 biofilm; format: cell-based, Enterococcus faecalis; details: 24 h
Procedure: as §1

[6] = system: E. faecalis PCM 2673; format: cell-based, Enterococcus faecalis; details: PCM 2673, 18 h
Procedure: as §1

[7] = system: E. coli ATCC 25922 biofilm formation; format: cell-based, Escherichia coli; details: ATCC 25922, 24 h
Procedure: as §1

[8] = system: E. coli ATCC 25922 biofilm; format: cell-based, Escherichia coli; details: ATCC 25922, 24 h
Procedure: as §1

[9] = system: E. coli ATCC 25922; format: cell-based, Escherichia coli; details: ATCC 25922, 18 h
Procedure: as §1

[10] = system: P. aeruginosa ATCC 9027 biofilm formation; format: cell-based, Pseudomonas aeruginosa; details: ATCC 9027, 24 h
Procedure: as §1

[11] = system: P. aeruginosa ATCC 9027 biofilm; format: cell-based, Pseudomonas aeruginosa; details: ATCC 9027, 24 h
Procedure: as §1

[12] = system: P. aeruginosa ATCC 9027; format: cell-based, Pseudomonas aeruginosa; details: ATCC 9027, 18 h
Procedure: as §1

[13] = system: C. albicans ATCC 10231 biofilm formation; format: cell-based, Candida albicans; details: ATCC 10231, 24 h
Procedure: as §1

[14] = system: C. albicans ATCC 10231 biofilm; format: cell-based, Candida albicans; details: ATCC 10231, 24 h
Procedure: as §1

[15] = system: C. albicans ATCC 10231; format: cell-based, Candida albicans; details: ATCC 10231, 24 h
Procedure: as §1

[16] = system: human red blood cells (RBCs); experiment: Hemolysis assay; format: cell-based; details: red cells of human, 1 h
Procedure: The hemolytic activity of the peptides was determined using fresh human red blood cells (RBCs) collected from a healthy human donor according to the procedure described in the literature. Fresh RBCs with EDTA as anticoagulant were rinsed three times with a PBS by centrifugation at 800×g for 10 min and resuspension in PBS. Serial dilution of the peptides in PBS (1–256 μg/mL) on 96-well polystyrene plates was prepared and the stock solution of RBCs was added up to a final volume of 100 μL with a 4% concentration of erythrocytes (v/v). The control wells for 0 and 100% hemolysis contained of RBCs suspended in PBS and 1% of Triton-X 100, respectively. Subsequently, the plates were incubated for 1 h at 37 °C and then centrifuged at 800×g for 10 min at 4 °C (Sorvall ST 16R Centrifuge, Thermo Scientific). After centrifugation, the supernatant was carefully […] to new microtiter plates and the release of hemoglobin was measured at 540 nm (Multiskan™ GO Microplate Spectrophotometer, Thermo Scientific). All experiments were conducted in triplicate.

[17] = in vitro; format: in vitro ADME; details: bovine, serum
Procedure: To assess serum stability, the peptides (0.5 mg) were dissolved in 4 mL of 25% (v/v) fetal bovine serum (FBS) in PBS and incubated at 37 °C. The aliquots of 100 μL of the test samples were transferred to 96-well polystyrene plates in triplicate for each time point. Samples were quenched at zero time (t0) and after 6 h of incubation at 37 °C by addition of 100 μL of ice-cold acetonitrile and stored at 4 °C for 10 min. Afterwards, the samples were centrifuged at 13,000×g for 20 min at 4 °C and diluted 1:1 with HPLC-grade water. All samples were analyzed using the Waters Alliance e2695 system with Waters Acquity QDa Detector (software–Empower®3). Analyses were conducted on an Agilent Zorbax SB-C18 RP-18 column (4.6 × 50 mm, 1.8-μm particle size, 80-Å pore size) using a linear 30–60% acetonitrile (B) gradient in deionized water (A) over 6 min at 25.0 ± 0.1 °C, at a flow rate of 0.5 mL/min and MS working in selected ion recording (SIR) mode (A—0.1% aqueous formic acid (FA) and B—0.1% FA in acetonitrile). The percentage of peptide remaining intact was calculated from peak areas of samples at t0 and after 6 h of incubation in serum (the % of remaining peptide = peak area after 6 h/peak area at t0). The mass-to-charge ratios selected for SIR mode were based on values obtained from full spectrum analysis of each peptide and are presented in Table 1.

Row | Structure (SMILES) | MBIC, S. aureus ATCC 25923 [1] | MBEC, S. aureus ATCC 25923 [2] | MIC, S. aureus ATCC 25923 [3] | MBIC, E. faecalis PCM 2673 [4] | MBEC, E. faecalis PCM 2673 [5] | MIC, E. faecalis PCM 2673 [6] | MBIC, E. coli ATCC 25922 [7] | MBEC, E. coli ATCC 25922 [8] | MIC, E. coli ATCC 25922 [9] | MBIC, P. aeruginosa ATCC 9027 [10] | MBEC, P. aeruginosa ATCC 9027 [11] | MIC, P. aeruginosa ATCC 9027 [12] | MBIC, C. albicans ATCC 10231 [13] | MBEC, C. albicans ATCC 10231 [14] | MIC, C. albicans ATCC 10231 [15] | Percentage of hemolysis at 1 μg/mL [16] | Percentage of hemolysis at 2 μg/mL [16] | Percentage of hemolysis at 4 μg/mL [16] | Percentage of hemolysis at 8 μg/mL [16] | Percentage of hemolysis at 16 μg/mL [16] | further results
1 | CC[C@H](C)[C@H](NC(=O)[C@H](C)NC(=O)[C@H](CC(=O)O)NC(=O)[C@H](Cc1ccccc1)NC(=O)[C@H](CC(C)C)NC(=O)CN)C(=O)N[C@@H](CCCCN)C(=O)N[C@@H](CCCCN)C(=O)N[C@H](C(=O)N[C@@H](C)C(=O)N[C@@H](CCC(=O)O)C(=O)N[C@@H](CO)C(=O)N[C@@H](Cc1ccccc1)C(N)=O)[C@@H](C)CC [Peptide I5A] (H-GLFDAIKKIAESF-NH2) | > 512 µg/mL | > 512 µg/mL | > 512 µg/mL | 512 µg/mL | > 512 µg/mL | 128 µg/mL (≈ 89 µM) | 512 µg/mL | 512 µg/mL | 256 µg/mL (≈ 178 µM) | > 512 µg/mL | > 512 µg/mL | 512 µg/mL (≈ 356 µM) | 4 µg/mL | 512 µg/mL | 256 µg/mL (≈ 178 µM) | 0.2% | 0.3% | 0.2% | 0.0% | 0.0% | Percentage of hemolysis at 32 μg/mL [16]: 0.0%; Percentage of hemolysis at 64 μg/mL [16]: 0.1%; Percentage of hemolysis at 128 μg/mL [16]: 0.0%; Percentage of hemolysis at 256 μg/mL [16]: 1.1%; remaining at 6 h, 0.125 mg/mL [17]: 71%
2 | CC[C@H](C)[C@H](NC(=O)[C@H](CCCCN)NC(=O)[C@H](CCCCN)NC(=O)[C@H](C)NC(=O)[C@@H](NC(=O)[C@H](CC(=O)O)NC(=O)[C@H](Cc1ccccc1)NC(=O)[C@H](CC(C)C)NC(=O)CN)[C@@H](C)CC)C(=O)N[C@@H](C)C(=O)N[C@@H](CCC(=O)O)C(=O)N[C@@H](CO)C(=O)N[C@@H](Cc1ccccc1)C(N)=O [Peptide I6A] (H-GLFDIAKKIAESF-NH2) | > 512 µg/mL | > 512 µg/mL | > 512 µg/mL | > 512 µg/mL | > 512 µg/mL | 256 µg/mL (≈ 178 µM) | 512 µg/mL | > 512 µg/mL | 512 µg/mL (≈ 356 µM) | > 512 µg/mL | > 512 µg/mL | > 512 µg/mL | 4 µg/mL | > 512 µg/mL | 256 µg/mL (≈ 178 µM) | 0.4% | 0.6% | 0.5% | 0.3% | 0.1% | Percentage of hemolysis at 32 μg/mL [16]: 0.0%; Percentage of hemolysis at 64 μg/mL [16]: 0.1%; Percentage of hemolysis at 128 μg/mL [16]: 0.1%; Percentage of hemolysis at 256 μg/mL [16]: 0.1%; remaining at 6 h, 0.125 mg/mL [17]: 29%
